In ChEMBL document CHEMBL4414576, “Recent advancements in mechanistic studies and structure activity relationship of FoF1 ATP synthase inhibitor as antimicrobial agent” (Eur J Med Chem, 2019):
In brackets after ≈: the same amount, converted by molar mass. Starred links: 1 amine or outer side, 2 acyl side, 3 side chain; linkers in the order of their positions; H or OH if unused. Non-standard residues stand in square brackets, D forms with d. Residues, ends and D or L forms follow the SMILES beside them. *: point of attachment. X2 = CCC(=O)C[C@@H](O)CC(C)C[C@H](N[*:1])C(=O)[*:2]; Leu(3R-OH) = CC(C)[C@@H](O)[C@H](N)C(=O)O; NH((S)CH(Me)CH2NMe2) = C[C@@H](CN(C)C)N*; Pro(4S-Me) = C[C@@H]1CN[C@H](C(=O)O)C1; X1 = CC[C@@H](C)/C=C/C(=O)*; Aib = CC(C)(N)C(=O)O; βAla = NCCC(=O)O

Tests used:
Format in all cases: functional
Staphylococcus aureus = assay: Antimicrobial activity against Staphylococcus aureus
Bacillus subtilis = assay: Antimicrobial activity against Bacillus subtilis
Streptococcus pyogenes = assay: Antimicrobial activity against Streptococcus pyogenes
Enterococcus faecalis = assay: Antimicrobial activity against Streptococcus faecalis
Micrococcus luteus = assay: Antimicrobial activity against Sarcina lutea
Microbacterium = assay: Antimicrobial activity against Microbacterium species
Candida = assay: Antifungal activity against Candida
[1] = Antifungal activity against Cryptococcus
Sporotrichum = assay: Antifungal activity against Sporotrichum
Trichophyton = assay: Antifungal activity against Trichophyton
Microsporum = assay: Antifungal activity against Microsporum
Streptococcus pneumoniae = assay: Antimicrobial activity against Streptococcus pneumoniae

| MIC (Staphylococcus aureus) | MIC (Bacillus subtilis) | MIC (Streptococcus pyogenes) | MIC (Enterococcus faecalis) | MIC (Micrococcus luteus) | MIC (Microbacterium) | MIC (Candida) | MIC [1] | MIC (Sporotrichum) | MIC (Trichophyton) | MIC (Microsporum) | MIC (Streptococcus pneumoniae) | SMILES |
| --- | --- | --- | --- | --- | --- | --- | --- | --- | --- | --- | --- | --- |
| 2.52 to 50 µg/mL (≈ 2.07 to 41 µM) | 2.52 to 50 µg/mL (≈ 2.07 to 41 µM) | 2.52 to 50 µg/mL (≈ 2.07 to 41 µM) | 2.52 to 50 µg/mL (≈ 2.07 to 41 µM) | 2.52 to 50 µg/mL (≈ 2.07 to 41 µM) | 2.52 to 50 µg/mL (≈ 2.07 to 41 µM) | 1 to 10 µg/mL (≈ 0.821 to 8.21 µM) | 1 to 10 µg/mL (≈ 0.821 to 8.21 µM) | 1 to 10 µg/mL (≈ 0.821 to 8.21 µM) | 1 to 10 µg/mL (≈ 0.821 to 8.21 µM) | 1 to 10 µg/mL (≈ 0.821 to 8.21 µM) | – | CCC(=O)C[C@@H](O)CC(C)C[C@H](NC(=O)[C@@H]1C[C@H](C)CN1C(=O)/C=C/[C@H](C)CC)C(=O)N[C@H](C(=O)NC(C)(C)C(=O)N[C@@H](CC(C)C)C(=O)N[C@@H](CC(C)C)C(=O)NC(C)(C)C(=O)NC(C)(C)C(=O)NCCC(=O)N[C@@H](C)CN(C)C)[C@H](O)C(C)C (stereo partly drawn) (X1-[Pro(4S-Me)][X2][Leu(3R-OH)][Aib]LL[Aib][Aib][βAla]-{NH((S)CH(Me)CH2NMe2)}) |
| – | – | – | – | – | – | – | – | – | – | – | 1 µg/mL (≈ 1.85 µM) | COc1nc2ccc(Br)cc2cc1[C@H](c1ccccc1)[C@](O)(CCN(C)C)c1ccc(Cl)cc1 |
